Experimental data from ChEMBL document CHEMBL1201862, “PubChem BioAssay data set” (2004).
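Growth conditions: 96-well plates. Treatment: test compound, 48 hours, 5 concentrations. Analysis: linear interpolation between bracketing concentrations; unreached endpoints set to highest concentration. GI50 marks 50% less growth.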 Calls of active or inactive are those of the source. Cut-off read from the data, not from the text of the source: active = GI50 up to about 1.1 µM and inactive = higher.

Experiments:
Experiment in all cases: NCI-60 cell line screen, 48 h
786-0 = test system: 786-0
A549 = test system: A549
ACHN = test system: ACHN
CAKI-1 = test system: CAKI-1
CCRF-CEM = test system: CCRF-CEM
HOP-92 = test system: HOP-92
KM12 = test system: KM12
LOX IMVI = test system: LOX IMVI
M14 = test system: M14
MDA-MB-231 = test system: MDA-MB-231
NCI-H226 = test system: NCI-H226
NCI-H522 = test system: NCI-H522
OVCAR-8 = test system: OVCAR-8
RXF 393 = test system: RXF 393
SK-MEL-5 = test system: SK-MEL-5
SW-620 = test system: SW-620
T47D = test system: T47D
TK-10 = test system: TK-10
U-251 = test system: U-251
UO-31 = test system: UO-31

Measured: GI50

NC1CC(=O)c2c(I)sc(I)c21 (stereo not given)
inactive: 786-0 11.2 µM | A549 29.8 µM | ACHN 20.9 µM | CAKI-1 11.6 µM | CCRF-CEM 3.27 µM | HOP-92 22.8 µM | KM12 15.4 µM | LOX IMVI 13.3 µM | M14 27.2 µM | MDA-MB-231 20 µM | NCI-H226 19.1 µM | NCI-H522 7.69 µM | OVCAR-8 20.6 µM | RXF 393 21.4 µM | SK-MEL-5 27.6 µM | SW-620 11.6 µM | T47D 46.2 µM | TK-10 19 µM | U-251 9.79 µM | UO-31 19.2 µM

CC1=CC2C(O1)C1C(=O)C=CC(=O)C1=CC2[N+](=O)[O-] (stereo not given)
inactive: 786-0 12.3 µM | A549 19.4 µM | ACHN 5.3 µM | CAKI-1 5.01 µM | CCRF-CEM 3.85 µM | HOP-92 2.14 µM | KM12 24.3 µM | LOX IMVI 16.6 µM | M14 14 µM | MDA-MB-231 19.8 µM | NCI-H226 > 100 µM | NCI-H522 1.71 µM | OVCAR-8 22.5 µM | RXF 393 14.8 µM | SK-MEL-5 17.5 µM | SW-620 3.61 µM | T47D 3.85 µM | TK-10 16.1 µM | U-251 18.5 µM | UO-31 5.22 µM
